Source: patent publication US20220387345A1, “ANTI-CANCER COMPOUNDS ACTING AS NON-PGP SUBSTRATE” (ASCENTAWITS PHARMACEUTICALS, LTD., priority 2019, published 2022)
Like-named read-outs stand apart in the source and are kept apart here.

How the values were obtained:
P-glycoprotein (P-GP) = P-glycoprotein (P-GP) (Homo sapiens, UniProt P08183); assay: Evaluation as P-Gp substrate: penetration test in MDCKII-MDR1 cells with Verapamil as inhibitor; conditions: dog, MDCK-MDR1
Protocol: The preparation of the […] for the penetration test: • (1) MDCKII-MDR1 cells were cultured in the cell culture bottle. The conditions of the incubator were 37° C., 5% of CO2, and 95% of the relative humidity. When the cell growth confluence was up to 70-90%, the cells were inoculated to the transwell. • (2) Before the cell inoculation, 50 μL of the culture medium was respectively added to every well of the upper compartment of the transwell, and […] of the culture medium was added to the lower compartment. The transwell was incubated in the incubator under 37° C. and 5% CO2. […] The cell suspension was transferred to the upper compartment of the 96-well transwell, wherein each upper compartment contains 50 μL of the cell suspension. The final inoculum density was 5.45×10^5 cells/cm^2. • (5) The culture medium was replaced after inoculating for 48 h. After culturing for 4-8 days, the medium was changed every other day. • (6) The process of replacing the culture medium was as the follow. The upper compartment and the lower compartment were separated. The medium in the lower compartment was discarded, and then the medium in the upper compartment was discarded. Finally, 75 μL of fresh medium was added to each upper compartment and […] of fresh medium was added to the lower compartment.
Evaluation of the Cell Monolayer Integrity • (1) The MDCKII-MER1 cells should be totally confluent and complete the differentiation after culturing for 4-8 days. The MDCKII-MER1 cells can be used for the penetration test at this time. • (2) Millipore was used to measure the resistance of the cell monolayer, and the resistance of every well was recorded. • (3) After the measuring, the transwell was put back to the incubator. • (4) The calculation of the resistance: measured resistance (ohms)×area of the membrane=TEER value (ohm-cm^2). If TERR value was <42 ohm-cm^2, the well would not be used to the penetration test.
Penetration Test of the Drug • (1) The transwell of the MDCKII-MER1 cells was taken out from the incubator. The cell monolayer was rinsed two times by the buffer solution and incubated at 37° C. for 30 min. • (2) The transport rate of the compound from the top to the bottom was tested. […] 200 μL of the acetonitrile containing the internal standard (100 nM Alprazolam, 200 nM Labetalol, 200 nM caffeine and 2 μM Ketoprofen) was added to each sample tube. After the sample tubes were vortexed for 10 min, the sample tubes were centrifuged at 3220 g for 30 min. 100 μL of the supernatant was taken to be diluted with the same volume of the water, and the LC-MS/MS analysis was executed. Each sample was adopted to the three parallel incubation. • (8) After the cell monolayer was incubated for 2 h, the integrity of the cell monolayer was evaluated by the migration assay using the fluorescence yellow, the fluorescence yellow storage solution was diluted by the buffer solution, and the final concentration was 100 μM/L. 100 μL of the fluorescence yellow solution was added to each well of the upper compartment, and 300 μL of the buffer was added to each well of the lower compartment. After the transwell was incubated at 37° C. for 30 min, 80 µL of the solution from each well of the upper compartment and the lower compartment was respectively transferred to a new 96-well plate. ELISA (Enzyme-linked Immunosorbent Assay) reader was used to perform the fluorimetry with the excitation wavelength of 480 nm and the emission wavelength of 530 nm.
The peak area was calculated by the result of the ion chromatography. The permeability coefficient (Papp, unit: cm/s×10^−6) of the compound was calculated by the formula: […]

H460 = assay: In vitro proliferation of NSCLC human tumor line H460, without or with specific AKR1C3 inhibitor; type: cell-based; conditions: H460 cells
Protocol: The cytotoxicity analysis of the human tumor cell lines in vitro was used.
IC50 (half maximal inhibitory concentration) values were in nanomoles and were obtained by the following. Cells were exposed in the compounds with different concentration for 2 hours. The compounds were washed off, and fresh medium was added into plates. A growth rate and a cell-survival rate were obtained by cell staining and compared with a control group treated with the medium only.
The compound was dissolved in 100% DMSO at 200 times of the desired final test concentration. When the drug was added, the compound was further diluted at 4 times of the desired final test concentration by the complete medium. 50 μL aliquots of the compound with specific concentration were added to the microwells contained 150 μL of medium, and then the final drug concentration was obtained. […] After the incubation was finished, the Alamar Blue was used to analyze and quantify the alive cells.
Before 2 h of the compound was prepared, the compound with the inhibitor was added to the cell culture. The inhibitor was […]

[1] = in the presence of specific AKR1C3 inhibitor (TH3021, 3 μmol concentration), read-out: Inhibitory effect of the proliferation of the cancer cells IC50 of +TH3021
[2] = Homo sapiens, NCI-H460, 2 h exposure, washed, further 70 h, Alamar Blue, read-out: Inhibitory effect of the proliferation of the cancer cells IC50

P-glycoprotein (P-GP), sequence (P08183 whole entry): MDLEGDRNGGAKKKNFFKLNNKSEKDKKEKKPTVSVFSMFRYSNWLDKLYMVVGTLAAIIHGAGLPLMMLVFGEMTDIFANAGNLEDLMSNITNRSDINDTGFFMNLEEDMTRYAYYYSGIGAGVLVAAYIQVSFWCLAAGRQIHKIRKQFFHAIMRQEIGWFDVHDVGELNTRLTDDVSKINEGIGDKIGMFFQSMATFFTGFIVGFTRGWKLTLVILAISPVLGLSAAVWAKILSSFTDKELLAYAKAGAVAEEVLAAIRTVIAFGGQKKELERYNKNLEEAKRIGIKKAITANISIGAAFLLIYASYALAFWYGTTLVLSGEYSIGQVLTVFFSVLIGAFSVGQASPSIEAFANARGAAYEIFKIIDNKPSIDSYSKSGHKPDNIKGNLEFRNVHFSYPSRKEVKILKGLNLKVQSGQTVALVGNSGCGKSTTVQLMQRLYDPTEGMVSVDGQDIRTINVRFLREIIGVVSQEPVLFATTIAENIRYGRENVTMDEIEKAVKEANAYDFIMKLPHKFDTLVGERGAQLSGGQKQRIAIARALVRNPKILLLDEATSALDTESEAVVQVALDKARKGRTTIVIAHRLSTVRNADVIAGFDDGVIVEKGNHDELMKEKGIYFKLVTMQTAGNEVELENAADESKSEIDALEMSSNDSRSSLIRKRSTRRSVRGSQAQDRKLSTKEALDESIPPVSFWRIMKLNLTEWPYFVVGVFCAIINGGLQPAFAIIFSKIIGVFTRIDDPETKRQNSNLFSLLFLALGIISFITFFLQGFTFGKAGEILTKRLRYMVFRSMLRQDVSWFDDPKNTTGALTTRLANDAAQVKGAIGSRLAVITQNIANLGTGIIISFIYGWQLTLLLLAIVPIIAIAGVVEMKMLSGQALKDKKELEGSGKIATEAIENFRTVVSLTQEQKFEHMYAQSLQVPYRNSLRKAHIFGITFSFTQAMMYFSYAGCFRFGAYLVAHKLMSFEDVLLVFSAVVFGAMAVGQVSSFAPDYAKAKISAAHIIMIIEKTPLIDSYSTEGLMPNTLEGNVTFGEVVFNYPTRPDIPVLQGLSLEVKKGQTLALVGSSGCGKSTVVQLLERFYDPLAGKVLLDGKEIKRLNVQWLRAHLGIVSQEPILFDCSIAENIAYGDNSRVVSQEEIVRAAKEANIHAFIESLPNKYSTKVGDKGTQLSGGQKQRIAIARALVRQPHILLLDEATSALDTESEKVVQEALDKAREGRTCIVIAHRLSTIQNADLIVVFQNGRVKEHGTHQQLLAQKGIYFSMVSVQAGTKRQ

With O=[N+]([O-])c1ccc(COP(=O)(N2CC2)N2CC2)cc1Oc1ccc(-c2ccc(F)cc2)c(F)c1 [Compound 1] the efflux ratio at 2 h (P-glycoprotein (P-GP)) was 1, the IC50 (H460; [1]) was 0.04 µM and the IC50 (H460; [2]) was 0.00087 µM.

Work on O=[N+]([O-])c1ccc(COP(=O)(N2CC2)N2CC2)cc1Oc1ccc(-c2ccc(F)cc2)cc1 [Compound 2] yielded an efflux ratio at 2 h (P-glycoprotein (P-GP)) of 1.53, an IC50 (H460; [1]) of 0.105 µM and an IC50 (H460; [2]) of 0.00189 µM.

For O=[N+]([O-])c1cc(F)c(COP(=O)(N2CC2)N2CC2)cc1Oc1ccc(-c2ccc(F)cc2)cc1 [Compound 3], the efflux ratio at 2 h (P-glycoprotein (P-GP)) was 1.2, the IC50 (H460; [1]) was 0.0478 µM and the IC50 (H460; [2]) was 0.00184 µM.

O=[N+]([O-])c1ccc(COP(=O)(N2CC2)N2CC2)cc1Oc1ccc(-c2ccc(F)cc2F)c(F)c1 [Compound 4] showed an efflux ratio at 2 h (P-glycoprotein (P-GP)) of 0.87, an IC50 (H460; [1]) of 0.0163 µM and an IC50 (H460; [2]) of 0.00067 µM.

In the case of Cc1cc(F)ccc1-c1ccc(Oc2cc(COP(=O)(N3CC3)N3CC3)ccc2[N+](=O)[O-])cc1F [Compound 5], the efflux ratio at 2 h (P-glycoprotein (P-GP)) is reported as 1.69, the IC50 (H460; [1]) is reported as 0.00504 µM and the IC50 (H460; [2]) is reported as 0.00059 µM.

For O=[N+]([O-])c1ccc(COP(=O)(N2CC2)N2CC2)cc1Oc1ccc(C(F)(F)F)nc1 [Compound 6], the IC50 (H460; [1]) was 0.0382 µM and the IC50 (H460; [2]) was 0.00046 µM.

For O=[N+]([O-])c1ccc(COP(=O)(N2CC2)N2CC2)cc1Oc1ccc(-c2ccc(F)cc2)nc1 [Compound 7], the efflux ratio at 2 h (P-glycoprotein (P-GP)) was 1.54, the IC50 (H460; [1]) was 0.0197 µM and the IC50 (H460; [2]) was 0.00071 µM.

O=[N+]([O-])c1ccc(COP(=O)(N2CC2)N2CC2)cc1Oc1ccc(-c2ccc(F)cc2F)nc1 [Compound 8] gave an IC50 (H460; [1]) of 0.0268 µM and an IC50 (H460; [2]) of less than 0.0015 µM.

O=[N+]([O-])c1ccc(COP(=O)(N2CC2)N2CC2)cc1Oc1ccc(Cl)nc1 [Compound 9] was tested, and the IC50 (H460; [1]) was 0.0561 µM and the IC50 (H460; [2]) was less than 0.0015 µM.

Work on O=[N+]([O-])c1ccc(COP(=O)(N2CC2)N2CC2)cc1Oc1ccc(-c2ccc(F)cn2)cc1 [Compound 10] yielded an efflux ratio at 2 h (P-glycoprotein (P-GP)) of 1.43, an IC50 (H460; [1]) of 0.0296 µM and an IC50 (H460; [2]) of 0.00115 µM.

Molecule O=[N+]([O-])c1ccc(COP(=O)(N2CC2)N2CC2)cc1Oc1ccc(-c2ccc(F)cn2)c(F)c1 [Compound 11] has an IC50 (H460; [1]) of 0.0922 µM and an IC50 (H460; [2]) of 0.000211 µM.

Molecule O=[N+]([O-])c1ccc(COP(=O)(N2CC2)N2CC2)cc1Oc1ccc(-c2ccc(F)cc2F)nc1 [Compound 12] has an IC50 (H460; 2 h exposure, washed, further 70 h, Alamar Blue, read-out: Inhibitory effect of the proliferation of the cancer cells IC50) of less than 0.0015 µM and an IC50 (H460; [1]) of 0.0114 µM.

For O=[N+]([O-])c1ccc(C(OP(=O)(N2CC2)N2CC2)C(F)(F)F)cc1Oc1cccc(-c2ccc(F)cc2)c1 (stereo not shown) [Compound 13], the IC50 (H460; [1]) was 1.89 µM and the IC50 (H460; [2]) was 0.03 µM.

Molecule O=[N+]([O-])c1ccc(C(OP(=O)(N2CC2)N2CC2)C(F)(F)F)cc1Oc1ccc(-c2ccc(F)cc2F)cc1 (stereo not shown) [Compound 14] has an efflux ratio at 2 h (P-glycoprotein (P-GP)) of 1.26, an IC50 (H460; [1]) greater than 1 µM and an IC50 (H460; [2]) of 0.0114 µM.

Work on O=[N+]([O-])c1ccc(C(OP(=O)(N2CC2)N2CC2)C(F)(F)F)cc1Oc1ccc(-c2ccc(F)cc2)c(F)c1 (stereo not shown) [Compound 15] yielded an efflux ratio at 2 h (P-glycoprotein (P-GP)) of 1.36 and an IC50 (H460; [2]) of 0.00678 µM.

O=[N+]([O-])c1ccc(C(OP(=O)(N2CC2)N2CC2)C(F)(F)F)cc1Oc1ccc(-c2ccc(F)cc2F)c(F)c1 (stereo not shown) [Compound 16] was tested, and the efflux ratio at 2 h (P-glycoprotein (P-GP)) was 1.96, the IC50 (H460; [1]) was greater than 0.5 µM and the IC50 (H460; [2]) was 0.00726 µM.

For O=[N+]([O-])c1ccc(C(OP(=O)(N2CC2)N2CC2)C(F)(F)F)cc1Oc1ccc(-c2ccc(F)cc2)nc1 (stereo not shown) [Compound 17], the IC50 (H460; [1]) was greater than 10 µM and the IC50 (H460; [2]) was 0.0355 µM.

For O=[N+]([O-])c1ccc(C(OP(=O)(N2CC2)N2CC2)C(F)(F)F)cc1Oc1ccc(-c2ccc(C(F)(F)F)cc2)nc1 (stereo not shown) [Compound 18], the IC50 (H460; [1]) was greater than 10 µM and the IC50 (H460; [2]) was 0.313 µM.

O=[N+]([O-])c1ccc(C(OP(=O)(N2CC2)N2CC2)C(F)(F)F)cc1Oc1ccc(-c2ccc(F)cn2)cc1 (stereo not shown) [Compound 19] showed an IC50 (H460; [1]) greater than 10 µM and an IC50 (H460; [2]) of 0.0468 µM.

Cc1ccc(NC(=O)c2ccc(CN3CCN(C)CC3)cc2)cc1Nc1nccc(-c2cccnc2)n1 [Imatinib, reference compound] was tested, and the efflux ratio at 2 h (P-glycoprotein (P-GP)) was 18.1.

In the case of COc1cc2nc(N3CCN(C(=O)c4ccco4)CC3)nc(N)c2cc1OC [Prazosin, reference compound], the efflux ratio at 2 h (P-glycoprotein (P-GP)) is reported as 2.87.
